Values after ≈ are worked out from the molar mass of the structure shown. Where two headings read alike, the source gives them in different places.
How the values were obtained:
in vitro [1] = details: human, plasma
[2] = tested on: nonmalignant human dermal fibroblasts (NHDF); experiment: In vitro cytotoxic activity; assay type: cell-based
Experimental: (§1) All the compounds were also tested for their in vitro cytotoxic activity on a small panel of four cancer cell lines (CCRF-CEM, HepG2, HeLa S3, HL-60) and nonmalignant human dermal fibroblasts (NHDF).

HeLa S3 = experiment: In vitro cytotoxic activity; assay type: cell-based; details: Homo sapiens
Experimental: as §1

CCRF-CEM = experiment: In vitro cytotoxic activity; assay type: cell-based; details: Homo sapiens
Experimental: as §1

HepG2 = experiment: In vitro cytotoxic activity; assay type: cell-based; details: Homo sapiens
Experimental: as §1

HL-60 = experiment: In vitro cytotoxic activity; assay type: cell-based; details: Homo sapiens
Experimental: as §1

[3] = Plasma protein binding, equilibrium dialysis, human plasma; assay type: in vitro ADME; details: undiluted plasma
in vitro [4] = details: mouse, plasma
[5] = Plasma protein binding, mouse plasma; assay type: in vitro ADME; details: mouse, plasma, mouse plasma protein binding; read-out: PPB (m) (converted)
[6] = In vivo pharmacokinetic study, intravenous; design: species or system male CD-1 mice; details: for t1/2 (half-life) / half-life: footnote: t1/2 stability in plasma, text: half-life in mouse PK
Experimental: The pharmacokinetic study was performed by Bienta (Enamine Biology Services) using male CD-1 mice (3 animals, 9 weeks old, body weight ranging from 29.2 to 33.7 g) following intravenous administration. Levels of the test compound were determined by LC-MS/MS in blood plasma over time (seven sampling time points: 5, 15, 30, 60, 120, 240, and 480 min) after a single dose.
Animal treatment and samples preparation were conducted by the Animal Laboratory personnel at Enamine/Bienta.

[7] = biological target: T1, recombinant human CD73 (hCD73) (Homo sapiens, UniProt P21589); experiment: CD73 activity assay on recombinant human CD73; assay type: biochemical; details: ΔGexp = RT ln Ki
T1 sequence (P21589 27-574): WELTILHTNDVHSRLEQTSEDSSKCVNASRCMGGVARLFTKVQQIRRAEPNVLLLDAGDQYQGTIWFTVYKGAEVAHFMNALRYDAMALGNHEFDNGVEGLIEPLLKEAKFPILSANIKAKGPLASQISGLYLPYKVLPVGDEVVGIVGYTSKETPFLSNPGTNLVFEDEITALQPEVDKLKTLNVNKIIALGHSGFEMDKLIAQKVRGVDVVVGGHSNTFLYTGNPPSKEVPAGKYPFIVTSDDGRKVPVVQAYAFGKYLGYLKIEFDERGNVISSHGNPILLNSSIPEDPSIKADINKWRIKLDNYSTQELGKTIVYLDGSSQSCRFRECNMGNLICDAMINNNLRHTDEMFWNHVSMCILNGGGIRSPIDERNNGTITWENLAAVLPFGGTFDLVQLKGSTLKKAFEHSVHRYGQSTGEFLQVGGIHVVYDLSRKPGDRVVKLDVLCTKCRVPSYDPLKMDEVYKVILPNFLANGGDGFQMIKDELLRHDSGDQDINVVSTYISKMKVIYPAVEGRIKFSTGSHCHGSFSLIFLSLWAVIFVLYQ

[8] = Kinetic solubility in PBS; assay type: physicochemical; details: phosphate-buffered saline, pH 7.4, aqueous buffer, kinetic from dmso stock
How it was run: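 DMSO stocks diluted into PBS pH 7.4 to 100 μM and shaken 2 h at room temperature in duplicate, then filtered by centrifugation. Filtrates diluted 1:99 in 50% acetonitrile. Quantified by Echo-MS against calibration standards spanning 0.05–4 μM.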

[9] = Microsomal stability assay, mouse liver microsomes; assay type: in vitro ADME; details: for Mics (m) comp remaining 60 min: 10 μM; for microsomal CLint at 10 µM: pooled liver microsomes, pH 7.4, read-out: Mics (m) CLint
[10] = Microsomal stability assay, human liver microsomes; assay type: in vitro ADME; details: for Mics (hu) comp remaining 60 min: 10 μM; for microsomal CLint at 10 µM: pooled liver microsomes, pH 7.4, read-out: Mics (hu) CLint
[11] = Tables 1 and 3, human plasma as printed in footnote, read-out: fup, fraction unbound in human plasma
[12] = human plasma protein binding, read-out: PPB (hu) (converted)
[13] = in vivo PK in mice, unit not given
[14] = male, CD-1, mouse, plasma, iv, 1 mg/kg, intravenous
[15] = mouse, plasma, 1 mg/kg, male CD-1 mice, intravenous, single dose, read-out: Cl (obs), observed clearance
[16] = male, CD-1, mouse, plasma, iv, 1 mg/kg, in vivo PK in mice, unit inferred, read-out: clearance

SMILES	half-life at 10 µM (in vitro [1]) [h]	fraction unbound at 4 h, 100 µM [3, 11]	fraction unbound at 4 h, 100 µM [3, 12]	half-life at 10 µM (in vitro [4]) [h]	fraction unbound at 4 h, 100 µM [5]	half-life [6, 14] [h]	clearance [6, 15] [mL/min/kg]	dG_exp, experimental binding free energy [7]	solubility at 2 h [8] [µM]	Mics (m) comp remaining 60 min [9] [%]	microsomal CLint at 10 µM [9] [µL/min/mg]	Mics (hu) comp remaining 60 min [10] [%]	microsomal CLint at 10 µM [10] [µL/min/mg]	IC50 [2] [µM]	IC50 (HeLa S3) [µM]	IC50 (CCRF-CEM) [µM]	IC50 (HepG2) [µM]	IC50 (HL-60) [µM]	also measured
O=P(O)(O)CP(=O)(O)OC[C@H]1O[C@@H](n2ccc3c(-c4ccsc4)ncnc32)[C@H](O)[C@@H]1O [4A.4]	> 2	0.82	0.125	> 2	0.726	0.0833	12	–13.2 kcal/mol	90 (≈ 44.2 µg/mL)					> 10	> 10	9.7	> 10	3.4	t1/2 (half-life) ([6]; intravenous): 4.5 min; clearance [6, 13]: high clearance
O=P(O)(O)CP(=O)(O)OC[C@H]1O[C@@H](n2ccc3c(-c4cccc5c4oc4ccccc45)ncnc32)[C@H](O)[C@@H]1O [4A.10]	> 2	0.13	0.004	> 2	0.135	2.38	3.5	–12.9 kcal/mol	> 100					> 10	> 10	> 10	> 10	9.5	clearance [6, 13]: moderate clearance
O=P(O)(O)CP(=O)(O)OC[C@H]1O[C@@H](n2ccc3c(-c4cccc5c4CCCC5)ncnc32)[C@H](O)[C@@H]1O [4A.12]	> 2	0.38	0.073	> 2	0.381	2.17		–15.1 kcal/mol	94 (≈ 50.7 µg/mL)	100	< 1	96	1	> 10	> 10	> 10	> 10	> 10	clearance [6, 16]: 2.1 mL/min/kg
Cc1nc(-c2ccco2)c2ccn([C@@H]3O[C@H](COP(=O)(O)CP(=O)(O)O)[C@@H](O)[C@H]3O)c2n1 [18E.1]	> 2		0.069	> 2	0.816			–13.2 kcal/mol	89 (≈ 43.5 µg/mL)	96	1	100	< 1	> 10	> 10	> 10	> 10	> 10	
Cc1nc(-c2cccc3c2CCCC3)c2ccn([C@@H]3O[C@H](COP(=O)(O)CP(=O)(O)O)[C@@H](O)[C@H]3O)c2n1 [18E.12]	> 2		0.022	> 2	0.323			–14.4 kcal/mol	80 (≈ 44.3 µg/mL)	106	< 1	108	< 1	> 10	> 10	> 10	> 10	> 10	
O=P(O)(O)CP(=O)(O)OC[C@H]1O[C@@H](n2cnc3c(-c4cccc5c4CCCC5)ncnc32)[C@H](O)[C@@H]1O [31A.12]	> 2		0.084	> 2	0.509			–11.8 kcal/mol	80 (≈ 43.2 µg/mL)	88	6	102	< 1	> 10	> 10	> 10	> 10	> 10	

Second part, led by results:

half-life at 10 µM (in vitro [1]) [h]	fraction unbound at 4 h, 100 µM [3, 11]	fraction unbound at 4 h, 100 µM [3, 12]	half-life at 10 µM (in vitro [4]) [h]	fraction unbound at 4 h, 100 µM [5]	half-life [6, 14] [h]	clearance [6, 15] [mL/min/kg]	dG_exp, experimental binding free energy [7]	solubility at 2 h [8] [µM]	Mics (m) comp remaining 60 min [9] [%]	microsomal CLint at 10 µM [9] [µL/min/mg]	Mics (hu) comp remaining 60 min [10] [%]	microsomal CLint at 10 µM [10] [µL/min/mg]	SMILES	IC50 [2] [µM]	IC50 (HeLa S3) [µM]	IC50 (CCRF-CEM) [µM]	IC50 (HepG2) [µM]	IC50 (HL-60) [µM]	also measured
> 2	0.63	0.086	> 2	0.626	2.83		–14.4 kcal/mol	62 (≈ 33.2 µg/mL)					O=P(O)(O)CP(=O)(O)OC[C@H]1O[C@@H](n2ccc3c(-c4cccc5ccccc45)ncnc32)[C@H](O)[C@@H]1O [4A.6]	> 10	> 10	> 10	> 10	> 10	clearance [6, 16]: 1.4 mL/min/kg
> 2	0.37	0.019	> 2	0.371	0.15	11	–13.5 kcal/mol	98 (≈ 51.5 µg/mL)					O=P(O)(O)CP(=O)(O)OC[C@H]1O[C@@H](n2ccc3c(-c4cc5ccccc5o4)ncnc32)[C@H](O)[C@@H]1O [4A.8]	> 10	> 10	> 10	> 10	> 10	t1/2 (half-life) ([6]; intravenous): 8.5 min; clearance [6, 13]: high clearance
> 2	0.8	0.257	> 2	0.8	2.15	7.2	–14.3 kcal/mol	> 100	79	9		< 1	O=P(O)(O)CP(=O)(O)OC[C@H]1O[C@@H](n2ccc3c(-c4ccnc5ccccc45)ncnc32)[C@H](O)[C@@H]1O [4A.17]	> 10	> 10	> 10	> 10	> 10	
> 2	0.14	≤ 0.01	> 2	0.136			–13.4 kcal/mol	79 (≈ 44.7 µg/mL)		< 1	104	< 1	COc1nc(-c2ccc3ccccc3c2)c2ccn([C@@H]3O[C@H](COP(=O)(O)CP(=O)(O)O)[C@@H](O)[C@H]3O)c2n1 [21F.7, [(5-{[2-Methoxy-4-(naphthalen-2-yl)-7H-pyrrolo[2,3-d]pyrimidin-7-yl]-β-D-ribofuranosyl}oxy)phosphonomethyl]phosphonic Acid]	> 10	> 10	> 10	> 10	> 10	
> 2	0.11	≤ 0.01	> 2	0.112			–12.7 kcal/mol	84 (≈ 47.4 µg/mL)		3	106	< 1	CNc1nc(-c2ccc3ccccc3c2)c2ccn([C@@H]3O[C@H](COP(=O)(O)CP(=O)(O)O)[C@@H](O)[C@H]3O)c2n1 [22G.7, [(5-{[2-(N-Methylamino)-4-(naphthalen-2-yl)-7H-pyrrolo[2,3-d]pyrimidin-7-yl]-β-D-ribofuranosyl}oxy)phosphonomethyl]phosphonic Acid]	> 10	> 10	> 10	> 10	8.1	
